In brackets after ≈: the same amount, converted by molar mass.
Assays:
[1] = tested on: Streptomyces griseus NBRC 15744^T; experiment: Antibacterial spectrum test, paper disk assay; type: cell-based; conditions: 50 μL of 1000 γ solution in methanol, YMPD medium, 28° C., 4 days
Method: The antibacterial activity of HK-1 was assayed using a paper disk against the following bacterial bodies.
A piece of ice out of a glycerol stock of S. griseus stored at −80° C. was planarly inoculated on the YMPD agar culture medium with a toothpick. This was incubated at 28° C. for 5 days. After the incubation, a small amount of spore was scraped off with a swab, and planarly inoculated on the YMPD culture medium. A piece of paper disk was placed on a filter paper, onto which 50 μL of a HK-1 solution adjusted to 1000 γ with methanol was dropped and dried. Then the disk was placed on the agar culture medium coated with the bacterial body. After incubation at 28° C. for 4 days, the diameter of the inhibition ring was measured.

[2] = tested on: Bacillus subtilis NBRC 3134^T; experiment: Antibacterial activity test in changing pH, paper disk assay; type: cell-based; conditions: 1000 γ in methanol, 50 μL on paper disk, 37° C., 18 hours
Method: Into a 50-mL Falcon tube, 20 mg of HK-1 was weighed out using an electric balance, and therein 20 mL of methanol (1000 γ) was added followed by gentle stirring. Each 3.3 mL was aliquoted to totally two 15-mL Falcon tubes. To one of them 20 μL of 1 N sodium hydroxide was added followed by gentle stirring. The pH was tested with a pH test paper. Ten (10) μL of each sample was subjected to HPLC. The HPLC analysis conditions are as follows. The stability of a compound is regarded as one of the important information for evaluating a substance. This is because, even if the external environment changes, insofar as the compound itself is stable, it can be applied in various situations, and the information leads to acquisition of biological knowledges. Therefore, the stability of the activity was examined by measuring antibacterial activities with respect to G. stearothermophilus, and B. subtilis using the solution prepared in the above “1. Antibacterial spectrum test”. (1) In a 200-mL Erlenmeyer flask, 100 mL of a NB culture medium was prepared and sterilized in an autoclave (121° C., 20 min). (2) After cooling to 50° C. or lower, 100 μL of the B. subtilis spore suspension was added. […] The culture medium was taken out from the incubator, and the diameter of the inhibition ring was measured with calipers (Kanon hardened stainless 150 mm).

[3] = tested on: Geobacillus stearothermophilus 111499 MERCK (ATCC 7953); experiment: Measurement of minimum inhibitory concentration, dilution method with liquid culture medium; type: cell-based; conditions: ATCC7953, LB liquid medium, 60° C., 135 rpm, 18 hours, visual observation and OD600
From the text: (§1) The minimum inhibitory concentration (MIC) is one of the antibiotic susceptibility tests, and means the minimum concentration of an antimicrobial substance at which the visible growth of a microorganism can be inhibited. In the research field, the MIC measurement is used, for example, to compare the effects of a new antibiotic substance and a conventional substance, or to examine actions on several strains, and is regarded as an important criterion for evaluating antibiotic substances. The MIC of “HK-1” which was obtained hereunder as the antibacterial active substance was measured using the dilution method with a liquid culture medium.
(§2) A piece of ice out of a glycerol stock of G. stearothermophilus stored at −80° C. was planarly inoculated on the LB agar culture medium with a toothpick. This was incubated at 60° C. for 18 hours. One (1) cm^2 of the culture medium was excavated with a toothpick, placed into a long test tube containing 10 mL of a liquid LB culture medium, and subjected to a shaking culture at 60° C., and 300 rpm, for 18 hours. The culture solution was diluted with sterile water to about McF standard No. 1.
Two (2) mg of HK-1 was weighed out into a 2 mL Eppendorf tube using an electric balance. To this Eppendorf tube, 2 mL of methanol was added to dissolve the HK-1 to form a […] solution. The solution was filtrated through a sterilized […] filter. […]

[4] = pH stability by HPLC analysis; type: physicochemical; conditions: methanol solution 1000 γ
Method: Into a 50-mL Falcon tube, 20 mg of HK-1 was weighed out using an electric balance, and therein 20 mL of methanol (1000 γ) was added followed by gentle stirring. Each 3.3 mL was aliquoted to totally two 15-mL Falcon tubes. To one of them 20 μL of 1 N sodium hydroxide was added followed by gentle stirring. The pH was tested with a pH test paper. Ten (10) μL of each sample was subjected to HPLC. The HPLC analysis conditions are as follows. Column: CAPCELL PAK Cis 5 μm, 4.6 mm 1. D×150 mm Mobile phase A: 0.1% aqueous solution of trifluoroacetic acid Mobile phase B: acetonitrile Temperature of thermostatic chamber for column: 40° C. Flow velocity: 1 mL/min UV: 254 nm Elution method: concentration gradient • 0 min to 18 min, B concentration 50% to 100% • 18.1 min to 23 min, B concentration 100% • 23.1 min to 25 min, B concentration 50%

[5] = tested on: Bacillus subtilis NBRC 3134^T; experiment: Measurement of minimum inhibitory concentration, dilution method with liquid culture medium; type: cell-based; conditions: NBRC3134, LB liquid medium, 37° C., 135 rpm, 18 hours, visual observation and OD600
From the text: as §1, §2
The preparation was performed in the same manner as in 1 above, only except that the temperature was changed to 37° C.
Two (2) mg of HK-1 was weighed out into a 2 mL Eppendorf tube using an electric balance. […]

MIC [3]: 0.78 µg/mL (≈ 0.474 µM)
MIC [5]: 0.78 µg/mL (≈ 0.474 µM)
SMILES: COc1cc(OOc2cc(OC)c3c(c2-c2c(O)c(Cl)c(C)c4c2C(O)c2c(Cl)c(O)cc(O)c2C4=O)C(OC2OC(C)C(O)C2O)c2c(Cl)c(OC)c(Cl)c(C)c2C3=O)c(-c2c(O)c(Cl)c(C)c3c2C(O)c2c(Cl)c(O)cc(O)c2C3=O)c2c1C(=O)c1c(C)c(Cl)c(OC)c(Cl)c1C2OC1OC(C)C(O)C1O (stereo not shown) [HK-1]
inhibition ring diameter [1]: 38.0 mm
inhibition ring diameter ([2]; solution with pH adjusted to 9): 20.2 mm
inhibition ring diameter ([2]; solution with pH not adjusted): 18.5 mm
pH stability (degradation peak in HPLC analysis) ([4]; pH adjusted to 9 with 1 N sodium hydroxide): stable with no recognizable degradation peak
pH stability (degradation peak in HPLC analysis) ([4]; pH not adjusted): stable with no recognizable degradation peak

Source: patent US20220127298A1, “THERMOSPOROTHRIX HAZAKENSIS-DERIVED ANTIBACTERIALLY ACTIVE SUBSTANCE” (KENNAN EISEI KOGYO CO., LTD., priority 2019, published 2022)
